Measured values: US11834392B2, “KDM4B inhibitors for the treatment of inflammatory diseases and disorders” (MUSC FOUNDATION FOR RESEARCH DEVELOPMENT, priority 2019, dated 2023)
Entries after “also recorded” stand apart in the source; their conditions may differ.

How the values were obtained:
[1] = tested on: osteoclast progenitors; assay: Aa-LPS-induced osteoclastogenesis; type: cell-based
From the text: (§1) As such, KDM4B represents a new therapeutic target for treating hyper-inflammatory diseases that result in, for example, bone destruction.

[2] = target: T1, KDM4E (Homo sapiens, UniProt B2RXH2); conditions: in vitro; cited from earlier work
T1 sequence (B2RXH2 1-506): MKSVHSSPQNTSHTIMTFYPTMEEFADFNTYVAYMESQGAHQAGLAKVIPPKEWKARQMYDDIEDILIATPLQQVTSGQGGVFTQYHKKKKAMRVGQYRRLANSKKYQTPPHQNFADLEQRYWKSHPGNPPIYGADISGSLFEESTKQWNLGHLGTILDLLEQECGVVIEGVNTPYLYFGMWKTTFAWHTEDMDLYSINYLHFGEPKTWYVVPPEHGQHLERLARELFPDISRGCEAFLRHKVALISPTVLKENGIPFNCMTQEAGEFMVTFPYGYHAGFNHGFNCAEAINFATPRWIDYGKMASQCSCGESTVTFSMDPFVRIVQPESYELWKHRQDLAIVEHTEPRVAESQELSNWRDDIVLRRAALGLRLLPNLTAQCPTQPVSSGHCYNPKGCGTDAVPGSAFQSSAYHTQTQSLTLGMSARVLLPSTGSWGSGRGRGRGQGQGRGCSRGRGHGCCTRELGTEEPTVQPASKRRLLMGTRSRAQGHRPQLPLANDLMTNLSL

[3] = target: T2, KDM4B (Homo sapiens, UniProt O94953); assay: KDM4B inhibition; type: biochemical
T2 sequence (O94953 1-1096): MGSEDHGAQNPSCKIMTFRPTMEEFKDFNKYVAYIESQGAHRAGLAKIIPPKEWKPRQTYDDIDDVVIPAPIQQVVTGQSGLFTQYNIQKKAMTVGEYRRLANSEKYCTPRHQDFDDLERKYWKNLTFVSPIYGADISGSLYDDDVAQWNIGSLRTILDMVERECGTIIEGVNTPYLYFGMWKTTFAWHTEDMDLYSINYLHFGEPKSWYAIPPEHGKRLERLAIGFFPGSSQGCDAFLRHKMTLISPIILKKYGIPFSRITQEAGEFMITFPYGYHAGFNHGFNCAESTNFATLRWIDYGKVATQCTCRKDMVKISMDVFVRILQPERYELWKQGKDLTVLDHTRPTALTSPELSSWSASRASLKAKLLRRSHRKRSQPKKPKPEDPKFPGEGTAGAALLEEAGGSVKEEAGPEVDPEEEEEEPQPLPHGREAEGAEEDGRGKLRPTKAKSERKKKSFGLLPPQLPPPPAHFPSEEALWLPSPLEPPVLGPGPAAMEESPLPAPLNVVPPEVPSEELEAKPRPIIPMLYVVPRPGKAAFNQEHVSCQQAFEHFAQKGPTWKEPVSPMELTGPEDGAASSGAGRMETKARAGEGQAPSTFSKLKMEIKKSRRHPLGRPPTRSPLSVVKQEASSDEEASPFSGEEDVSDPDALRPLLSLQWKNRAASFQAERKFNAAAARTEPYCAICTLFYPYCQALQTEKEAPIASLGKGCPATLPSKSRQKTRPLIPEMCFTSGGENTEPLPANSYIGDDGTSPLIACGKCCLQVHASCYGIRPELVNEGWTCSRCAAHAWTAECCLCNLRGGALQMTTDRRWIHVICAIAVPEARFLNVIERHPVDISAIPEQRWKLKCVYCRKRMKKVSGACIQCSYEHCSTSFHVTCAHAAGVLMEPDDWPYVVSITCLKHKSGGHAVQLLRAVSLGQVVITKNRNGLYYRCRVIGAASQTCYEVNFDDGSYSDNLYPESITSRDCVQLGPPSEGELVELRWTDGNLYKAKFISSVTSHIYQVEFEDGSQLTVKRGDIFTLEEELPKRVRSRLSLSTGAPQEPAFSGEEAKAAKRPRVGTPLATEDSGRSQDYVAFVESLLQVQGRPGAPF

[4] = tested on: Primary BMDMs; assay: IL-10 expression by qRT-PCR in BMDMs; type: cell-based; conditions: 50 μM 1 hour pre-treatment, A.a LPS 100 ng/mL, 24 hours
Procedure: Primary BMDMs were isolated and differentiated as previously described and were pre-treated with ML324 at 50 μM for 1 hour followed by A.a LPS (100 ng/mL). […] (FIG. 5D)

[5] = tested on: H3K4me; assay: Global H3K4me levels in fluorescence-stained macrophages after Aa-LPS challenge; type: cell-based
From the text: as §1

[6] = cited from earlier work
[7] = tested on: bone marrow derived macrophages (BMDMs); assay: In vitro periodontal disease inflammation model (IL-6 ELISA after A.a LPS challenge); type: cell-based, C57BL/6 mice; conditions: for immunosuppressive action (pro-inflammatory cytokine response to A.a LPS): murine macrophages, A.a LPS challenge
[8] = tested on: herpes simplex virus; conditions: mice, high doses; cited from earlier work
[9] = tested on: Primary BMDMs; assay: Extracellular flux analysis (seahorse XFe96); type: cell-based
Procedure: (§2) Primary BMDMs were isolated and differentiated as previously described and were pre-treated with ML324 at 50 uM for 1 hour followed by A.a LPS (100 ng/mL). 24 hours later, extracellular flux was analyzed using a seahorse XFe96 instrument and following metabolic analysis, cells were incubated with phalloidin 488 and DAPI. Representative images were acquired using the Hermes […] system at 10× for morphological analysis. N=4. […] Primary BMDMs were isolated and differentiated as previously described and were pre-treated with ML324 at 50 μM for 1 hour followed by A.a LPS (100 ng/mL). […] (FIG. 5D)

[10] = Solubility; type: physicochemical; conditions: at effective doses
[11] = tested on: Primary BMDMs; assay: Macrophage morphology / polarization (phalloidin 488 and DAPI staining); type: cell-based; conditions: 50 μM 1 hour pre-treatment, A.a LPS 100 ng/mL, 24 hours
Procedure: as §2

[12] = tested on: cytomegalovirus; conditions: mice, high doses; cited from earlier work
[13] = tested on: H3K9me3; assay: H3K9me3 staining to confirm KDM4B inhibitory activity; type: cell-based

Compound	Aa-LPS-induced osteoclastogenesis [1]	inhibition of KDM4E [2]	IC50 [3]	activity toward KDM4B [3]	IL-10 expression (mRNA) [4]	global H3K4me levels following Aa-LPS challenge [5]	cell permeability [6]	immunosuppressive action (pro-inflammatory cytokine response to A.a LPS) [7]	immunosuppressive action (pro-inflammatory cytokine response to A.a LPS) ([7]; listed as 1)	viral replication of herpes simplex virus [8]	glycolytic activity of LPS treated cells ([9]; 50 μM 1 hour pre-treatment, A.a LPS 100 ng/mL, 24 hours)	spare respiratory capacity ([9]; LPS with or without ML324, compared to PBS control)	solubility [10]	macrophage morphology / polarization (M1 phenotype) [11]	viral replication of cytomegalovirus [12]	H3K9me3 expression / staining [13]	dose-dependent immunosuppressive response to A.a LPS [7]
CN(C)CCCNC(=O)c1ccc(-c2cc(O)c3ncccc3c2)cc1 [ML324]	significant reduction	known to inhibit	4.9 µM	active	significantly higher IL-10 expression	prevented by KDM4B inhibition	good cell permeability	decreases the pro-inflammatory cytokine response	immunosuppressive action	shown to inhibit viral replication	rescued this effect	reduced spare respiratory capacity	highly insoluble at effective doses	alters macrophage polarization; also recorded: able to rescue this effect	shown to inhibit viral replication	–	–
O=C(Nc1ccccc1C(=O)O)c1ccc(-c2ccccc2)cc1 [Compound 12, 2-([1,1′-biphenyl]-4-carboxamido)benzoic acid]	–	–	–	–	–	–	–	–	–	–	–	–	–	–	–	concurrent increase in H3K9me3; also recorded: increase in H3K9me3 staining	dose-dependent immunosuppressive response; also recorded: dose-dependent immunosuppressive effect
